Results on two compounds are retold here after ChEMBL document CHEMBL4145663, “Sweet Binders: Carbonic Anhydrase IX in Complex with Sucralose” (ACS Med Chem Lett, 2018).

One experiment deals with Carbonic anhydrase 9 (Homo sapiens, UniProt Q16790). Nature of the experiment: Binding affinity to carbonic anhydrase 9 (unknown origin) expressed in Escherichia coli BL21 (DE3).
The target of the next experiment is Carbonic anhydrase 2 (Homo sapiens, UniProt P00918). Put plainly: Binding affinity to carbonic anhydrase 2 (unknown origin).

Molecules are shown by their SMILES. Bounds are passed on as bounds.

A word on the Ki: it is the dissociation constant of the complex between target and ligand, obtained from inhibition or displacement. The low end stands for a stronger hold on the target, the high end for a looser hold on the target. With `OC[C@H]1O[C@H](O[C@]2(CCl)O[C@H](CCl)[C@@H](O)[C@@H]2O)[C@H](O)[C@@H](O)[C@H]1Cl` [SUCRALOSE], the Ki came to 2200 nM at Carbonic anhydrase 9 and 300 nM at Carbonic anhydrase 2.
`OC[C@H]1O[C@@](CO)(O[C@H]2O[C@H](CO)[C@@H](O)[C@H](O)[C@H]2O)[C@@H](O)[C@@H]1O` [SUCROSE]: the Ki on Carbonic anhydrase 9 and on Carbonic anhydrase 2 was greater than 20000 nM in each case.
